Assay results: US20220395528A1, “AGENT FOR PREVENTING OR TREATING […] DEVICE FOR PREVENTING OR TREATING ARRHYTHMIA” (SCHOOL JURIDICAL PERSON THE KITASATO INSTITUTE, priority 2019, published 2022)

Legend:
Pigs = assay: Number of arrhythmias on electrocardiogram in pigs after balloon occlusion of the anterior descending branch of the left coronary artery, gas inhalation (Experiment Example 1); format: in vivo; conditions: coronary blood flow interrupted, counted for 10 minutes of inhalation versus the preceding 10 minutes, FIG. 3
Method: Pigs were anesthetized with pentobarbital, and electrocardiogram measurement was performed. After tracheal intubation, an artificial respirator was connected, and respiratory management was performed. A catheter was inserted into the descending aorta from the inguinal region, a balloon was placed in the anterior descending branch of the left coronary artery, and the balloon was inflated to interrupt the blood flow. After 40 minutes, an electrocardiogram was measured without doing anything for 10 minutes, the number of arrhythmias was counted, and after that, for 10 minutes, the number of arrhythmias was counted in the same manner for a control group, a hydrogen inhalation group, a nitric oxide inhalation group, or a combination group (hydrogen and nitric oxide inhalation group) in a divided manner.
A gas inhaled by the control group was a mixed gas (oxygen concentration of 35%) of oxygen and nitrogen and containing no hydrogen or nitric oxide.

[1] = high-concentration hydrogen inhaled, gaseous hydrogen used as a gas for diving; cited from earlier work

Row | Structure (SMILES) | number of arrhythmias (Pigs; mixed gas of air and hydrogen, hydrogen concentration 1.3%) | side effects [1] | number of arrhythmias (Pigs; mixed gas of air and nitric oxide, nitric oxide concentration 80 ppm)
1 | [HH] [hydrogen] | decreased | no side effects | –
2 | [N]=O [nitric oxide, reference compound] | – | – | increase
